These results are taken from article PMC10973839, “CHF6297: a novel potent and selective p38 MAPK inhibitor with robust anti-inflammatory activity and suitable for inhaled pulmonary administration as dry powder” (Frontiers in Pharmacology, 2024).

Assay [1] has as its system TS-induced neutrophil influx in BALF. Put plainly: BALF neutrophilia induced by tobacco smoke exposure in mice. The class given is in vivo, C57BL6J female mice. The note with it: for neutrophils in BALF: 4 days TS exposure. The protocol: C57BL6J female mice aged 9–10 weeks (Harlan Laboratories S.r.l) in groups of 8 were exposed, via whole-body inhalation, twice daily 1 h apart, for 4 consecutive days, to the tobacco smoke (TS) (generated using “Marlboro Gold: 9 mg of tar and 0.7 mg nicotine”) of two cigarettes/exposure on days 1 and 2, three cigarettes/exposure on day 3, and four cigarettes/exposure on the last exposure day in clear polycarbonate chambers (27 cm × 16 cm × 12 cm). The smoke was introduced into the exposure chambers (21100-790 Ugo Basile, Biological Research Instruments, Comerio, Varese, Italy), with the airflow generated by using a mechanical ventilator (7025 Rodent Ventilator, Ugo Basile). Each exposure chamber was connected to a different ventilator set at a rate of 100 mL/min (frequency: 50 strokes/min; volume: 2 mL/stroke). At regular intervals (after burning two cigarettes), the exposure chambers were opened and aired. Sham and control mice were exposed to air only in the same manner for the same duration of time.
CHF6297 (0.03 and 0.3 mg/kg) and budesonide (0.3 mg/kg), our reference compound and vehicle (0.2% Tween 80 in saline), respectively, were administered intranasally in a volume of 30 µL, 1 h before and 5 h after TS exposure under light isoflurane anesthesia.
A BAL was performed using a volume of 0.6 mL of phosphate-buffered saline that was gently instilled and withdrawn three times using a 12-mL syringe. BALF cells were separated by centrifugation (10 min at 3,070 g), and the supernatant was removed. The resulting cell pellet was resuspended in a known volume of PBS, and the total cell numbers were calculated by counting a stained (Turk’s stain) aliquot under a microscope using a hemacytometer. The cell pellet was resuspended to approximately 10^5 cells per ml, and cytospin slides were prepared by centrifugation (8 min at 72.26 g; Shandon Cytospin; Thermo Shandon Ltd., Runcorn, Cheshire, United Kingdom). The slides were air-dried and stained using Wright–Giemsa stain, following the manufacturer’s instructions. A differential cell count was performed using light microscopy. Approximately 400 cells were counted from each slide. The cells were identified using standard morphometric techniques.

A further assay has as its target T1, human p38γ (Homo sapiens, UniProt P53778).
T1 construct: GST; purchased Invitrogen
T1 sequence (P53778 1-367): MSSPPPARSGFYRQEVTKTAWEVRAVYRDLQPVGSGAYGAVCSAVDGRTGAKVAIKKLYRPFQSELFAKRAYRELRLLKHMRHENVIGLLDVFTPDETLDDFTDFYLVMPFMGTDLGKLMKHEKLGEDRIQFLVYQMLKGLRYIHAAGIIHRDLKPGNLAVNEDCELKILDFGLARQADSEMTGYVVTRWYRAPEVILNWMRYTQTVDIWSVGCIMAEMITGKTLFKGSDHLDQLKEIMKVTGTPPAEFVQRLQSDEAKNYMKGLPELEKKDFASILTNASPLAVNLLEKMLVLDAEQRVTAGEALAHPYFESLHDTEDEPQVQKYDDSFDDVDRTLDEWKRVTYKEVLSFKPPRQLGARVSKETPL
Put plainly: KINOMEscan competition binding assay (DiscoverX), p38γ. The note with it: read-out: Kd (mean ± s.d.). From the text:
(§1) The KINOMEscan® platform (DiscoverX) was used, which uses a novel and proprietary active site-directed competition binding assay to quantitatively measure the interactions between human p38 isoforms and the target compound.

Assay [2] relates to IL-1β-induced neutrophil influx and IL-6 in BALF. The experiment in a line: IL-1β-induced neutrophilia and IL-6 accumulation in BALF of rats. The class given is in vivo. The note with it: for ED50: Rattus norvegicus, Neutrophil. The protocol:
IL-1β is a potent proinflammatory agent that markedly induces lung neutrophilia when administered intratracheally in rats, and p38α MAPK is involved in IL-1β signaling in lung cells ([Laporte et al., 2000]). The dose–response curve and anti-inflammatory duration of action studies were carried out by delivering CHF6297 intratracheally through the DP-4M PennCentury insufflator as micronized dry powder (blended with lactose) at the doses of 0.1, 0.35, and 1 mg/kg, 1 h or 24 h before IL-1β challenge. Four hours after IL-1β challenge, BALF was collected for cell counting and IL-6 quantification.
For the experimental studies performed with IL-1β challenge, the first aliquot of BALF was centrifuged separately: the resulting supernatant was frozen at −80°C for IL-6 ELISA analysis.
Frozen cell-free BALFs were analyzed using an ELISA kit purchased from R&D Systems (Rat IL-6 ELISA Kit; Cat. No. SR6000B, Lot. 307537), according to the manufacturer’s instructions.

Another assay deals with BEAS-2B. Put plainly: TNF-α-evoked IL-8 release. The class given is cell-based, human. The note with it: TNF-α 1 ng/mL; compared with the CSE-evoked assay.
For another assay, the system named is rat PBMCs. Put plainly: TNF-α release in LPS-stimulated PBMCs. The format is cell-based. The protocol: Peripheral blood mononuclear cells (PBMCs) were isolated from the blood of healthy human volunteers and Wistar rats (250–350 gr; Charles River, Calco, Italy) using a standard density gradient centrifugation technique. The citrated blood was placed onto Histopaque^TM and centrifuged. The PBMCs were then removed from the density gradient interface and washed in phosphate-buffered saline (PBS). The PBMCs were suspended in RPMI 1640 medium (without serum), aliquoted into a 96-well plate, and incubated at 37°C for 3 h in a humidified incubator. After incubation, the medium was replaced (with a medium containing 1% fetal bovine serum), and the plate was incubated at 37°C, for 1 h, in the presence of a test compound or the appropriate vehicle. LPS (10 ng/mL), or an appropriate vehicle control, was then added to the cells, and the plate was returned to the incubator for 18 h. Cell-free supernatants were removed and assayed for TNF-α levels using MSD plates on the SECTOR Imager 6000 (Meso Scale).

The next assay concerns the target T2, human p38α (Homo sapiens, UniProt Q16539).
T2 construct: purchased DiscoverX
The experiment in a line: KINOMEscan competition binding assay (DiscoverX), p38α. The note with it: read-out: Kd (mean ± s.d.).
From the text: as §1

In assay [3] the test system is LPS-induced neutrophil influx in BALF. Put plainly: LPS-induced BALF neutrophilia in rats.
Procedure: For intratracheal (i.t.) administration of LPS or IL-1β, animals were anesthetized with sevoflurane (4% in oxygen), and a laryngoscope was moved forward into the mouth to visualize the trachea and guide the insertion of a fine-tipped PE 100 tube (air-jet delivery system) directly into the trachea and located 1–2 mm above the carina bifurcation. LPS or IL-1β at a concentration of 5 μg/kg and 0.3 μg/kg, respectively, was prepared as a saline solution in a 0.5 mL/kg volume and was blown into the airways during the spontaneous inspiration phase in an air volume of 2 mL.
Each dose group was allocated to a separate system, and each system was housed in an individual ventilated hood.
Powder generation: Compound and vehicle blends were compressed into canisters by using a hydraulic press at 50 bar to prepare a stable “tablet” and ensure a uniform pack density. The Wright Dust Feeder (WDF) comprised an electric motor, gears, a scraper blade, air entry, and a final jet and baffle array. The scraper blade scraped off a fine layer of powder, driven by the motor, and the output speed was determined by the configuration of the gears. The scraped powder was then blown out of the dust feed at its base through a jet which focused the powder stream at a baffle, thus reducing aggregation and producing a fine particulate. The WDF was attached to an aerosol conditioning pre-chamber for the delivery of the powder to the inhalation tower. The generation of the powder was monitored throughout the exposure periods either visually or electronically with a dust monitor.
Inhalation tower: The nose-only inhalation tower was a modular apparatus of anodized aluminum comprising a base unit, two animal sections, and a top section, connected to an earth lead to prevent the formation of any static build-up. During the exposures, the rats were held in restraining tubes, with their snouts protruding into the exposure chamber (see Supplementary Material, Figure 1). The rate of airflow through the WDF was 19 L/min, and that of the exhaust airflow was 20 L/min (vehicle, 0.1 and 1 mg/kg doses) or 40 L/min (0.03 mg/kg doses). The air supply and extract were monitored using in-line flowmeters and recorded manually.
The inhaled dose was derived using the following equation ([Alexander et al., 2008]): delivered dose (μg/kg) = (Conc. × RMV × D)/BW, where Conc. = concentration of CHF-6297 in the air inhaled (µg/L); RMV = volume of air inhaled in 1 min (L/min) 0.608 × BW (kg) 0.852; D = duration of exposure to the aerosol (min); and BW = body weight (kg).
Animals were dosed either 1 h (dose–response curve) or 24 h (duration of action) before LPS challenge. Four hours after endotoxin challenge or saline injection, bronchoalveolar lavage fluid (BALF) was collected for cell counting.
Animals were anesthetized with sevoflurane (4% in oxygen) and euthanized by bleeding from the abdominal aorta. BALF was obtained by gently washing the lungs with three aliquots (4 mL each) of 100 mL of solution A [Hank’s balanced salt solution (HBSS) × 10; 100 mL of 100 mM EDTA; 10 mL of 1 mM HEPES; and 790 mL of distilled water]. […] The resulting BALF was centrifuged at 800 × g for 10 min at 4°C. […] The cell count per animal was calculated from the number of cells for 1 µL of BALF multiplied by the volume used for the resuspension of the cell pellet.
Where [4] appears, read: 0.35 mg/kg i.t., 24 h before IL-1β.
The mark [5] stands for this setting: 1 mg/kg i.t., 24 h before IL-1β.

Molecules are shown by their SMILES. Where two headings read alike, the source gives them in different places.

T2 sequence (Q16539 whole entry): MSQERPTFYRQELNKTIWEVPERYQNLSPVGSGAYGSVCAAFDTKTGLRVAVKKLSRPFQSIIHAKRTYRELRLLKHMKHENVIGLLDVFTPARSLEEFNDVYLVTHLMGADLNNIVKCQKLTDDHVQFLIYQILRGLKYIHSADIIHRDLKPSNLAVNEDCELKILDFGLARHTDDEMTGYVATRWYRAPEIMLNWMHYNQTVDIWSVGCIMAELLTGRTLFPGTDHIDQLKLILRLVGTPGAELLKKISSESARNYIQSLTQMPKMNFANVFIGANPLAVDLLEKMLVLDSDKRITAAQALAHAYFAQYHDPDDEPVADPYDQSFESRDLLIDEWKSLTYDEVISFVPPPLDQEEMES

Usually Kd stands for the constant that tells how readily two partners part at equilibrium. A word on the ED50: it is the midpoint of the dose-response relation. By IC50 is commonly meant the concentration that gives 50% inhibition. Low values mean inhibition by little substance, high ones a need for much substance. With `C[C@H]1CCCCN1c1nnc2ccc(O[C@@H]3CC[C@H](NC(=O)Nc4cc(C(C)(C)C)nn4-c4cnn(CCN(C)C)c4)c4ccccc43)cn12` [CHF6297], the “% of inhibition of neutrophil recruitment” value in assay [1] (0.03 mg/kg i.n., 1 h before and 5 h after TS) turned out to be 29.7 ± 15.3%. Also, the “neutrophils in BALF” value is recorded as 0.4 ± 0.1 × 10^5 cells/mL in assay [1] (0.03 mg/kg i.n.); 0.2 ± 0.1 × 10^5 cells/mL in assay [1] (0.3 mg/kg i.n.); 5.5 × 10^6 ± 814 neutrophils in assay [2] (setting [4]); 2.3 × 10^6 ± 234 neutrophils in assay [2] (1 mg/kg i.t. dry powder, 1 h before IL-1β); 2.98 × 10^6 ± 62 neutrophils in assay [2] (setting [5]); 1.18 × 10^6 ± 0.27 × 10^6 neutrophils in assay [3] (0.1 mg/kg nose-only dry powder, 1 h before LPS, BALF 4 h after challenge). Also, the “neutrophils in BALF” value is reported as 1.9 × 10^6 ± 0.3 × 10^6 neutrophils in assay [3] (0.1 mg/kg nose-only dry powder, 24 h before LPS); 0.7 × 10^6 ± 0.12 × 10^6 neutrophils in assay [3] (1 mg/kg nose-only dry powder, 1 h before LPS, BALF 4 h after challenge); 1.45 × 10^6 ± 0.19 × 10^6 neutrophils in assay [3] (1 mg/kg nose-only dry powder, 24 h before LPS). Also, in assay [1] (0.3 mg/kg i.n., 1 h before and 5 h after TS), the “% inhibition of neutrophilia” value turned out to be 62.0 ± 8.4%. The Kd was above 1000 nM on human p38γ and 0.24 ± 0.06 nM on human p38α. Moreover, the “IL-6 concentration in BAL fluid” value is 791 ± 131 pg/mL in assay [2] (0.1 mg/kg i.t., 1 h before IL-1β); 302 ± 58.34 pg/mL in assay [2] (0.35 mg/kg i.t., 1 h before IL-1β); 1,101 ± 253 pg/mL in assay [2] (setting [4]); 404 ± 108 pg/mL in assay [2] (1 mg/kg i.t., 1 h before IL-1β); 337 ± 84 pg/mL in assay [2] (setting [5]). For the same compound, the 50% effective dose (ED50) in assay [2] (i.t. dry powder, 1 h before IL-1β, read-out: ED50, IL-1β-induced neutrophil influx) is 0.22 mg/kg; in assay [2] (i.t., IL-1β challenge, read-out: ED50, increase in IL-6 levels in BALF), 0.82 mg/kg; in assay [3] (Rattus norvegicus, Neutrophil, read-out: ED50, inhibition of pulmonary neutrophilia), 0.064 mg/kg. In the assay on BEAS-2B, the “potency against IL-8 release evoked by TNF-α” value was “comparable potency”. Besides, the IC50 in the assay with rat PBMCs (PBMC, LPS 10 ng/mL, 18 h) came to 1.4 nM. In addition, in the assay with rat PBMCs (TNF-α release), the “fold less potent than AZD7624” value worked out at 7 fold.
